Source: patent EP4722365A1, “DOUBLE-STRANDED NUCLEOTIDE COMPOUND FOR METABOLIC DISEASES AND USE THEREOF” (Visirna Therapeutics (Suzhou) Co., Ltd., priority 2023, dated 2024)

How the values were obtained:
Type in all cases: in vivo
[1] = test system: hDGAT2; assay: Mouse model receiving hydrodynamic injection of DGAT2 plasmid via tail vein (Example 5, liver mRNA qPCR); conditions: for Average inhibition rate, % Day 1 after HDI (day 5 after administration): 3mpk subcutaneously day 0, HDI day 4, BALB/c mice; for Average inhibition rate, % Day 1 after HDI (day 15 after administration): 3mpk subcutaneously day 0, HDI day 14, BALB/c mice
Procedure: BALB/c mice, female, 6-7 weeks old.
pcDNA-DGAT2 plasmid, having a concentration of 2 µg/µL, diluted with physiological saline for later use.
The hydrodynamic injection scheme of DGAT2 plasmid DNA via tail vein, the administration and the sample collection method were as follows.
Treatment with compound: The day of administration to mice was defined as day 0, the day before it was day -1, the day after it was day 1, and so on. On day 0, the mice were injected subcutaneously with 5 mL/kg of the solvent or the test compound, at a dosage of 3mpk.
Hydrodynamic injection of DGAT2 plasmid DNA solution into mice via tail vein: On day 4 or 14, the plasmid DNA was prepared with normal saline before injection, and stored at 4°C until use. All mice were injected with the plasmid DNA solution in a volume of 8% of the body weight (injection volume (mL)= body weight of mice (g) x 8%) in 5 seconds via the tail vein, and the weight of plasmid injected into each mouse was 10 µg.
Endpoint of the experiment and collection of liver samples: On day 5 or 15, that is, 24 hrs after the hydrodynamic injection of DGAT2 plasmid via the tail vein, all mice were euthanized by CO2 inhalation. After euthanasia, blood samples were collected from the heart and liver samples were collected. 2 liver tissues of about 70 mg were immersed in RNAlater®, and incubated overnight at 4 °C. The supernatant was discarded and the remainder was transferred to a freezer at -80°C, for mRNA detection later.
RNA in the liver was extracted with Trizol. The method was briefly described as follows: 50-70 mg of liver tissue and 1.2 mL of Trizol were homogenized with Qiagen Tissue Lyser II at 26 Hz for 2 min and lyzed at room temperature for 5 min. 1 mL of the supernatant was taken, added to 200 uL of chloroform, vigorously shaken for 15 s, allowed to stand for 3 min, and centrifuged. The supernatant was collected, added with an equal volume of isopropanol, and stood overnight at -20°C for precipitation. The precipitate was washed twice with 70% , and dissolved in water without RNase. The concentration of the RNA sample was determined by Nanodrop ONE and diluted to 400 ng/uL with water without RNase for reverse transcription.
The experimental steps of reverse transcription could be made reference to the instruction of FastKing cDNA first strand synthesis kit (genome clean). Briefly, a gDNA removal mixture was prepared according to Table 6. The mixture (5 µL/sample) and 400 ng/µL RNA sample were added to a 96-well PCR reaction plate, incubated at 42°C for 3 min, and cooled on ice. A mixture for reverse transcription was prepared according to Table 7. The reverse transcription mixture (10 µL/sample) and the DNA removal product of the previous step were added to a 96-well PCR reaction plate, for reverse transcription. Reaction conditions: 42°C for 15 min; and 95°C for 3 min. The cDNA was stored at 4°C for further analysis. Table 6. Ingredients for gDNA-removal reaction
Reaction conditions: 95°C for 10 min; and 40 cycles of 95°C for 15 s, and 60°C for 1 min. Table 8. Ingredients for qPCR Reaction (DGAT2)
The expression of the target gene in each sample was analyzed by relative quantification using ΔΔCt method. In this method, the Ct difference (ΔCt) between the target gene (DGAT2) and the internal reference gene (Neo) was determined, and the ΔCt value of the sample treated with the compound was compared with that of the control group.
The formula is: ΔCt = average Ct value of target gene−average Ct value of reference gene. [formula] [formula]
Data analysis: The data are expressed as the average of each group of mouse samples ± standard error. Unless otherwise specified, n=4 or 5. Student's t test was used for statistical analysis. Table 10.1 Test for evaluating the in-vivo inhibitory activity of siRNA compounds on target gene DGAT2 in mice model receiving hDGAT2 HDI 5 days after administration

[2] = test system: human DGAT2; assay: Mice receiving hydrodynamic injection of human DGAT2 plasmid via the tail vein (Example 7); conditions: 3 mg/kg subcutaneous single dose day 0; BALB/c mice, liver DGAT2 mRNA
Procedure: (§1) Animals: BALB/c mice, female, 6-7 weeks old.
(§2) DGAT2 plasmid DNA: pcDNA-DGAT2 plasmid, having a concentration of 2 µg/µL, diluted with physiological saline for later use.
The in-vivo experimental designs for the hydrodynamic injection of DGAT2 plasmid DNA via the tail vein, the administration, and the sample collection method were shown in the table below.
Treatment with compound: The day of administration to mice was defined as day 0, the day before it was day -1, the day after it was day 1, and so on. On day 0, the mice were injected subcutaneously with 5 mL/kg of the solvent or the test compound.
Hydrodynamic injection of DGAT2 plasmid DNA solution into mice via tail vein: On day 14, the plasmid DNA was prepared with normal saline before injection, and stored at 4°C until use. All mice were injected with the plasmid DNA solution in a volume of 8% of the body weight (injection volume (mL)= body weight of mice (g) x 8%) in 5 seconds via the tail vein, and the weight of plasmid injected into each mouse was 10 µg. […]
RNA in the liver was extracted with Trizol. The concentration of the RNA sample was determined by Nanodrop ONE (ultra-micro ultraviolet-visible spectrophotometer) and diluted to 400 ng/uL with water without RNase for reverse transcription. Quantitative PCR detection of DGAT2 and NEO gene expressions in mouse liver: […]

[3] = test system: human DGAT2; assay: Mice receiving hydrodynamic injection of human DGAT2 plasmid via the tail vein (Example 8); conditions: 3 mg/kg subcutaneous single dose day 0; BALB/c mice, liver DGAT2 mRNA
Procedure: as §1, §2
Experimental method: The in-vivo experimental designs for the hydrodynamic injection of DGAT2 plasmid DNA, the administration and the sample collection method were shown in the table below.
Treatment with compound: The day of administration to mice was defined as day 0, the day before it was day -1, the day after it was day 1, and so on. On day 0, the mice were injected subcutaneously with 5 mL/kg of the solvent or the test compound,
Hydrodynamic injection of DGAT2 plasmid DNA solution into mice via tail vein: On day 14, the plasmid DNA was prepared with normal saline before injection, and stored at 4°C until use. […]
Quantitative PCR detection of DGAT2 gene expression in mouse liver: RNA in the liver was extracted with Trizol. The concentration of the RNA sample was determined by Nanodrop ONE (ultra-micro ultraviolet-visible spectrophotometer) and diluted to 400 ng/uL with water without RNase for reverse transcription. Quantitative PCR detection of DGAT2 and NEO gene expressions in mouse liver: […]

[4] = test system: DGAT2; assay: Inhibitory activity on the target gene DGAT2 in mice (Example 6, liver mRNA RT-PCR); conditions: 3 mg/kg SC, day 0, once; C57BL/6 mice, liver mRNA day 7
Source text: Animals: Male C57BL/6 mice, 6 weeks old, without particular pathogens. Before the experiment, the animals were allowed to acclimate to the environment for 7 days.
Solvent: phosphate buffer (PBS).
In-vivo experiment: The in-vivo experimental designs for the animal administration and the sample collection method were shown in the table below.
Definition of days of experiment: The day of first administration to mice was defined as day 0, the day before it was day -1, the day after it was day 1, and so on.
All mice were given a single dose of PBS, the control compound or the test compound by SC on day 0. On day 7, blood was taken from the submandibular vein plexus mice, and the plasma was collected. Then the mice were euthanized. Blood was taken from the heart for later use. The liver was collected for analysis of target mRNA level in the liver.
Sample detection and analysis: RT-PCR was used to quantitatively detect the level of target mRNA in liver tissue.
The expression of the target gene in each sample was analyzed by relative quantification using ΔΔCt method. In this method, the Ct difference (ΔCt) between the target gene (DGAT2) and the internal reference gene (GAPDH) was determined, and the ΔCt value of the sample treated with the compound was compared with that of the control group. […]
Data analysis: The data are expressed as the average of each group of mouse samples ± standard error. […]

Row | Substance | Average inhibition rate, % Day 1 after HDI (day 5 after administration) [1] [%] | Average inhibition rate, % Day 1 after HDI (day 15 after administration) [1] [%] | other results
1 | dS301: sense (invAb)*gaagaaguUfCfCfagaaauacau*(invAb)[L96]; anti-sense a*Uf*g*UfaUfuucugGfaAfcUfuCfuUf*c | 91.68 | 78.89 | Average inhibition rate, % (Day 15 after administration) [2]: 79%
2 | dS302: sense (invAb)*acaccauaGfAfCfuauuugcuuu*(invAb)[L96]; anti-sense a* Af*a*GfcAfaauagUfcUfaUfgGfuGf*u | 97.46 | 70.35 | Average inhibition rate, % (Day 15 after administration) [3]: 70.4%
3 | dS303: sense (invAb)*uguacauaUfUfCfugcacugauu*(invAb)[L96]; anti-sense a* Af*u*CfaGfugcagAfaUfaUfgUfaCf*a | 85.53 | – | –
4 | dS304: sense (invAb)*cgcuacuuUfCfGfagacuacuuu*(invAb)[L96]; anti-sense a*Af*a*GfuAfgucucGfaAfaGfuAfgCf*g | 66.33 | – | –
5 | dS305: sense [NAG37](invAb)*uggguuauUfUfAfaaagaaauua*(invAb ); anti-sense u*Af*a*UfuUfcuuuuAfaAfuAfaCfcCf*a | 95.59 | – | –
6 | dS306: sense [NAG37](invAb)*uguggguuAfUfUfuaaaagaaau*(invAb ); anti-sense a*Uf*u*UfcUfuuuaaAfuAfaCfcCfaCf*a | 96.72 | – | –
7 | dS307: sense (invAb)*ggugucugUfGfGfguuauuuaaa*(invAb)*[L96]; anti-sense Vpu*Uf*Uf*AfaauaaccCfaCfaGfacac*c | – | 61.03 | Average inhibition rate (%) (7 days) [4]: 76%
8 | dS316: sense (invAb)*gaagaaguUfCfCfagaaauacaa[L96]; anti-sense Vpu*Uf*g*UfaUfuucugGfaAfcUfuCfuUf* c | – | – | Average inhibition rate, % (Day 15 after administration) [2]: 66%
